Data published in US6989364B1, “Methods for treating cardiac hypertrophy by administering IFN-γ” (Genentech, Inc., priority 1998, dated 2006).

What was measured:
[1] = test system: male Sprague/Dawley (SD) rats; assay: Cardiac hypertrophy induced by fluprostenol in vivo: body and organ weights; parameters: species or system rat
Excerpt: This pharmacological model tests the ability of IFN-γ to inhibit cardiac hypertrophy induced in rats (e.g. male Wistar or Sprague-Dawley) by subcutaneous injection of fluprostenol (an agonist analog of PGF2α). It is known that rats with pathologic cardiac hypertrophy induced by myocardial infarction have chronically elevated levels of extractable PGF2α in their myocardium. Lai et al, Am. J. Physiol. (Heart Circ. Physiol.) 271:H2197–H2208 (1996). Accordingly, factors that can inhibit the effects of fluprostenol on myocardial growth in vivo are potentially useful for treating cardiac hypertrophy. The effects of IFN-γ on cardiac hypertrophy are determined by measuring the weight of heart, ventricles, and left ventricle (normalized by body weight) relative to fluprostenol-treated rats not receiving IFN-γ. A detailed description of this assay is provided in the examples.
Animals All experimental procedures conformed to the guiding principles of the American Physiology Society, and were approved by Genentech's Institutional Animal Care and Use Committee. The animals used in this study were male Sprague/Dawley (SD) rats (8 weeks of age, Charles River Breeding Laboratories, Inc.). The animals were acclimated to the facility for at least one week before experiments, fed a pelleted rat chow and water ad libitum, and housed in a light and temperature controlled room.
Administration of fluprostenol and/or IFN-γ Rats received subcutaneous injection of fluprostenol (Cayman Chemical, Ann Arbor, Mich.) at 0.15 mg/kg, recombinant mouse IFN-γ (Genentech, Inc., South San Francisco, Calif.) at 0.08 mg/kg, combination of fluprostenol and IFN-γ, or saline vehicle, twice a day for 14 days. In the IFN-γ and fluprostenol+IFN-γ groups, animals were pretreated with IFN-γ for one day. Body weight was measured before and after treatment. A previous study has shown that the dose of fluprostenol used here is the lowest dose which produces a significant cardiac hypertrophy in rats. Lai et al., supra.
Measurement of organ weights Under anesthesia with ketamine/xylazine, the heart, kidney, and spleen were removed, dissected and weighed. The left ventricle was stored at […] for evaluation of gene expression.
Statistical analyisis Results are expressed as mean±SEM. One way analysis of variance (ANOVA) was performed to assess differences in parameters between groups. Significant differences were then subjected to post hoc analysis using Newman-Keuls method; P<0.05 was considered significant.

[2] = test system: male Sprague/Dawley (SD) rats; assay: Hemodynamic assessment (MAP) in rats treated with fluprostenol and/or IFN-γ; type: in vivo, rat; settings: conscious rats, 14 days of treatment (FIG. 5)
Experimental: Hemodynamic assessment Thirteen days after treatment, rats were anesthetized with intraperitoreal injection of ketamine 80 mg/kg (Aveco Co., Inc., Fort Dodge, Iowa) and xylazine 10 mg/kg (Rugby Laboratories, Inc., Rockville Center, N.Y.). A catheter (PE-10 fused with PE 50) filled with heparin-saline solution (50 U/ml) was implanted into the abdominal aorta, via the right femoral artery, for measurement of mean arterial pressure (MAP) and heart rate (HR). The catheter was exteriorized and fixed at the back of the neck.
One day after catheterization, the arterial catheter was connected to a Model CP 10 pressure transducer (Century Technology Company, Inglewood, Calif., USA) that was coupled to a Grass Model 7 polygraph (Grass Instruments, Quincy, Mass., USA). MAP and HR were measured simultaneously in conscious, unrestrained rats.

[3] = test system: male Sprague/Dawley (SD) rats; settings: s.c. twice a day; previous study, Lai et al.; cited from earlier work
[4] = test system: left ventricle of male Sprague/Dawley (SD) rats; assay: Cardiac gene expression (real-time RT-PCR) in rats treated with fluprostenol and/or IFN-γ; type: in vivo, rat; settings: normalized to GAPDH, FIG. 6
Excerpt: FIGS. 6A–6D Bargraphs showing the effect of fluprostenol (FLUP) and IFN-γ on: A Skeletal actin (SKA); B Sarcoplasmic reticulum calcium ATPase (SRCA); C Collagen I (COL I); D Atrial natriuretic factor (ANF) expression. Expression levels are normalized to glyceraldehyde-3-phosphate dehydrogenase (GAPDH) message. VEH is vehicle. There were 7 animals per group and the data are presented as the mean±SEM. P<0.05 vs VEH group.
RNA preparation Total RNA was isolated using RNeasy Maxi Columns (Qïägen) according to the manufacturer's instructions.
RT-PCR Real-time RT-PCR (TaqMan) technology was used to compare the gene expression between the various treatment groups. An oligonucleotide probe containing a fluorescent reporter dye, […], at the 3′-end was designed to hybridize to the amplicon defined by two PCR primers. A 3′-blocking phosphate prevents extension of the probe. The reporter dye is released from the probe by the 5′ exonuclease activity of Taq polymerase during the extension phase of PCR reaction. […] The threshold cycle number (Ct), defined as the point where the reporter fluorescence reaches a value greater than 10 times the standard deviation of the baseline, is […] to the amount of amplicon produced from the sample. Since the fluorescence is detected during the exponential phase of the amplification, none of the reaction components are limiting. In each experiment, a control is analyzed that lacks the RNA template to monitor for contamination, and another control is included where the RT step is omitted to eliminate amplification of possible contaminating DNA as the source of the signal. Reactions are optimized to give the greatest fluorescence signal and smallest Ct by titration of magnesium and primer concentrations, and the product is run on an agarose gel to verify the presence of a single band at the predicted molecular weight. […]
Quantitation of the TaqMan results was performed as described by Heid et al., Genome Res. 6:986–994 (1996), with modifications. […]

[5] = test system: adult rat cardiac myocytes; assay: Inhibition of PGF2α-induced spreading response of adult myocytes; type: cell-based
Experimental: Myocytes were pre-incubated with saline vehicle or IFN-γ (500 U/ml) on day of isolation. A second addition of vehicle or IFN-γ was performed 24h after isolation, along with the addition of either vehicle or PGF2α (10^−7 M). After an additional 72 hr incubation, cells were fixed in glutaraldehyde, stained with eosin Y and viewed by fluorescence microscopy. A, B, C Cardiac myocytes after 4 days in culture: control, PGF2α, and PGF2α+IFN-γ, respectively. D, E, F Histographs showing maximum breadth of rod shaped cardiac myocytes versus percent frequency of breadth occurrence. The maximum breadth of rod-shaped cells was determined by fluorescence microscopy and imaging software. At least 200 rod shaped cells from a single experiment were examined per group.
Myocytes were pre-incubated with saline vehicle or IFN-γ on day of isolation. A second amount of IFN-γ was added 24 hr after isolation, along with the addition of either vehicle or PGF2α (10^−7 M). After an additional 72 hr incubation, cells were fixed in glutaraldehyde, stained with eosin Y and viewed under fluorescence. Quantitation of myocyte morphology: A control, B PGF2α, C PGF2α+IFN-γ (25 U/ml), D PGF2α+IFN-γ (100 U/ml), E PGF2α+IFN-γ (500 U/ml). Histographs showing maximum breadth of rod shaped cardiac myocytes versus percent frequency of breadth occurrence. The maximum breadth of rod-shaped cells was determined by fluorescence microscopy and imaging software. At least 200 rod shaped cells from a single experiment were examined per group.
In this assay, ventricular myocytes are isolated from a single (male Sprague-Dawley) rat, essentially following a modification of the procedure described in detail by Piper et al., “Adult ventricular rat heart muscle cells.” In: Cell Culture Techniques in Heart and Vessel Research, H. M. Piper, ed., Berlin: Spinger-Verlag, 1990, pp. 36–60. This procedure permits the isolation of adult ventricular myocytes and the long-term culture of these cells in the rod-shaped phenotype. […] Piper et al., supra; Lai et al., Am J. Physiol. 1996; 271 (Heart Circ. Phvsiol. 40):H2197–H2208. The inhibition of myocyte spreading induced by PGF2α, or PGF2α analogs, (e.g. fluprostenol) and phenylephrine by various potential inhibitors of cardiac hypertrophy is then tested. A detailed protocol is described in the examples that follow.
Adult myocyte cultures The procedure used for the isolation of ventricular myocytes from adult rats was a modification of a procedure described by Piper et al., supra, and is detailed in Lai et al., supra. For each myocyte preparation, one male Sprague-Dawley rat weighing about 250 g was anesthetized with pentobarbital sodium, and the heart was removed. Extraneous tissue was trimmed from the heart, and it was mounted onto a Langendorff system that was temperature controlled at 37° C. The heart was perfused with about 40 ml of Krebs buffer (110 mM NaCl, 2.6 mM KCl, 1.2 mM KH2PO4, 1.2 mM MgSO4.7H2O, 25 mM NaHCO3 and 11 mM glucose). A solution containing 30 mg of collagenase and 12.5 μl of 100 mM CaCl2 in 50 ml of Krebs buffer was then recirculated through the heart for 30 minutes. The heart was removed from the Langendorff apparatus, and the atria and connective tissues were removed. The ventricles were cut into 2 mm cubes with dissecting scissors, and further digested in a fresh collagenase solution (30 mg collagenase and 400 mg BSA dissolved in Krebs buffer with 12.5 μl of 100 mM CaCl2) for five minutes at 37° C. During the digestion, the tissue suspension was gently band shaken one time per minute. After the digestion, the supernatant was removed and saved, and the remaining tissue was further digested in fresh collagenase solution for an additional five minutes.

[6] = s.c. twice a day for 14 days, fluprostenol 0.15 mg/kg, IFN-γ 0.08 mg/kg, mean ± SEM

Molecule: O=C(O)CCC/C=C\C[C@@H]1[C@@H](/C=C/[C@@H](O)COc2cccc(C(F)(F)F)c2)[C@H](O)C[C@@H]1O (racemic) [fluprostenol, reference compound]
- Ratio of heart, ventricular, and left ventricular weights to body weight (FIG. 4) ([1]; 14 days, fluprostenol and IFN-γ alone vs vehicle, fluprostenol+IFN-γ vs fluprostenol group): significant increase
- BWO, basal levels of body weight ([1]; before treatment, mean ± SEM): 292.3 ± 2.2 g
- BW, body weight post treatment [1, 6]: 381.1 ± 4.4 g
- HW, heart weight [1, 6]: 1.000 ± .018 g
- KW, kidney weight [1, 6]: 1.397 ± .038 g
- KW/BW, kidney weight to body weight [1, 6]: 3.632 ± .076 g/kg
- LVW, left ventricular weight [1, 6]: .740 ± .013 g
- SW, spleen weight [1, 6]: .880 ± .048 g
- SW/BW, spleen weight to body weight [1, 6]: 2.309 ± .130 g/kg
- VW, ventricular weight [1, 6]: .957 ± .017 g
- ΔBW, BW-BWO [1, 6]: 91.9 ± 4.0 g
- Mean arterial pressure (MAP) compared to vehicle [2]: significant decline
- Lowest dose which produces a significant cardiac hypertrophy in rats [3]: 0.15 mg/kg
- Abundance of mRNA for α-skeletal actin, collagen I, and natriuretic factor in the heart vs vehicle [4]: increase in the abundance of mRNA
- mRNA for sarcoplasmic reticulum calcium ATPase in the heart vs vehicle [4]: significantly reduced

Molecule: IL-1β: other cytokine tested for inhibition of the spreading response
- Ability of other cytokines to inhibit PGF2α induced myocyte spreading [5]: could not inhibit the spreading response

Molecule: prostaglandin F2α [PGF2α]
- Spreading response of adult myocytes (maximum cell breadth) vs control cells ([5]; 0.1 μM, P<0.001): induced a significant change in the maximum cell breadth

Molecule: TNF-α
- Ability of other cytokines to inhibit PGF2α induced myocyte spreading [5]: could not inhibit the spreading response

Molecule: IFN-α
- Ability of other cytokines to inhibit PGF2α induced myocyte spreading [5]: could not inhibit the spreading response

Molecule: IL-6: other cytokine tested for inhibition of the spreading response
- Ability of other cytokines to inhibit PGF2α induced myocyte spreading [5]: could not inhibit the spreading response

B1: IL-1α: other cytokine tested for inhibition of the spreading response (protein, UniProt P01583 113-271, looked up)
Interleukin-1 alpha: SAPFSFLSNVKYNFMRIIKYEFILNDALNQSIIRANDQYLTAAALHNLDEAVKFDMGAYKSSKDDAKITVILRISKTQLYVTAQDEDQPVLLKEMPEIPKTITGSETNLLFFWETHGTKNYFTSVAHPNLFIATKQDYWVCLAGGPPSITDFQILENQA
- Ability of other cytokines to inhibit PGF2α induced myocyte spreading [5]: could not inhibit the spreading response
